From ChEMBL document CHEMBL1201862, “PubChem BioAssay data set” (2004)
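Each compound was tested at five concentrations against cells in 96-well plates for 48 hours. GI50 marks 50% less growth.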 Active and inactive are the calls of the source. Cut-off read from the data, not from the text of the source: active = GI50 up to about 1.1 µM and inactive = higher. Where a SMILES comes first, the peptide text is derived from it. [ ]: non-standard residue; d: D form. The star is where a group is joined. Bn2Val = CC(C)[C@@H](C(=O)*)N(Cc1ccccc1)Cc1ccccc1; NH(3,4-diMeO-benzyl) = COc1ccc(CN*)cc1OC; NMeV = CN[C@H](C(=O)O)C(C)C

Experiments:
Test in all cases: inhibition of tumour cell growth, NCI panel, 48 h
SF-268 = system: SF-268
MDA-MB-435 = system: MDA-MB-435
TK-10 = system: TK-10
NCI-H460 = system: NCI-H460
K562 = system: K562
SNB-19 = system: SNB-19
UACC-257 = system: UACC-257
SK-OV-3 = system: SK-OV-3
HCT-15 = system: HCT-15
SW-620 = system: SW-620
HOP-62 = system: HOP-62
786-0 = system: 786-0
HOP-92 = system: HOP-92
RXF 393 = system: RXF 393
IGROV-1 = system: IGROV-1
PC-3 = system: PC-3
SK-MEL-5 = system: SK-MEL-5
SN12C = system: SN12C
KM12 = system: KM12
CAKI-1 = system: CAKI-1
SNB-75 = system: SNB-75
SK-MEL-28 = system: SK-MEL-28
MDA-N = system: MDA-N
HT-29 = system: HT-29
HCC 2998 = system: HCC 2998
UO-31 = system: UO-31
OVCAR-5 = system: OVCAR-5
SF-295 = system: SF-295
NCI/ADR-RES = system: NCI/ADR-RES
DU-145 = system: DU-145
OVCAR-8 = system: OVCAR-8
MCF7 = system: MCF7
EKVX = system: EKVX
OVCAR-3 = system: OVCAR-3
RPMI-8226 = system: RPMI-8226
MDA-MB-231 = system: MDA-MB-231
COLO 205 = system: COLO 205
NCI-H23 = system: NCI-H23
OVCAR-4 = system: OVCAR-4
MOLT-4 = system: MOLT-4
Hs-578T = system: Hs-578T
LOX IMVI = system: LOX IMVI
HCT-116 = system: HCT-116
NCI-H522 = system: NCI-H522
U-251 = system: U-251
NCI-H226 = system: NCI-H226
BT-549 = system: BT-549
A549 = system: A549
CCRF-CEM = system: CCRF-CEM
SF-539 = system: SF-539
UACC-62 = system: UACC-62
T47D = system: T47D
SK-MEL-2 = system: SK-MEL-2
ACHN = system: ACHN
Malme-3M = system: Malme-3M
A498 = system: A498
M14 = system: M14
SR = system: SR
HL-60 = system: HL-60

SMILES: C=C(CO)[C@H]1CC/C(C)=C/CC/C(C)=C/C/C=C(\C)[C@H](O)C1
- GI50 (SF-268): 22.2 µM (inactive)
- GI50 (MDA-MB-435): 18.6 µM (inactive)
- GI50 (TK-10): 20.6 µM (inactive)
- GI50 (NCI-H460): 22.1 µM (inactive)
- GI50 (K562): 37.8 µM (inactive)
- GI50 (SNB-19): 47.4 µM (inactive)
- GI50 (UACC-257): 19.7 µM (inactive)
- GI50 (SK-OV-3): > 100 µM (inactive)
- GI50 (HCT-15): 50 µM
- GI50 (SW-620): 20.2 µM (inactive)
- GI50 (HOP-62): > 100 µM (inactive)
- GI50 (786-0): 17.3 µM (inactive)
- GI50 (HOP-92): 19.8 µM (inactive)
- GI50 (RXF 393): 19.9 µM (inactive)
- GI50 (IGROV-1): 17.8 µM (inactive)
- GI50 (PC-3): 41.8 µM (inactive)
- GI50 (SK-MEL-5): 18.9 µM (inactive)
- GI50 (SN12C): 33.3 µM (inactive)
- GI50 (KM12): 15.9 µM (inactive)
- GI50 (CAKI-1): 31.3 µM (inactive)
- GI50 (SNB-75): 31 µM (inactive)
- GI50 (SK-MEL-28): 16 µM (inactive)
- GI50 (MDA-N): 34.5 µM (inactive)
- GI50 (HT-29): 18.5 µM (inactive)
- GI50 (HCC 2998): 15.2 µM (inactive)
- GI50 (UO-31): 30.9 µM (inactive)
- GI50 (OVCAR-5): 47.1 µM (inactive)
- GI50 (SF-295): 34.8 µM (inactive)
- GI50 (NCI/ADR-RES): 27.3 µM (inactive)
- GI50 (DU-145): 49.3 µM (inactive)
- GI50 (OVCAR-8): 17.8 µM (inactive)
- GI50 (MCF7): 26 µM (inactive)
- GI50 (EKVX): 33.2 µM (inactive)
- GI50 (OVCAR-3): 33.7 µM (inactive)
- GI50 (RPMI-8226): 20 µM (inactive)
- GI50 (MDA-MB-231): 21.6 µM (inactive)
- GI50 (COLO 205): 22.3 µM (inactive)
- GI50 (NCI-H23): 29.2 µM (inactive)
- GI50 (OVCAR-4): 46.7 µM (inactive)
- GI50 (MOLT-4): 18.3 µM (inactive)
- GI50 (Hs-578T): 25.5 µM (inactive)
- GI50 (LOX IMVI): 27.5 µM (inactive)
- GI50 (HCT-116): 26.9 µM (inactive)
- GI50 (NCI-H522): 16.9 µM (inactive)
- GI50 (U-251): 19.1 µM (inactive)
- GI50 (NCI-H226): 30.5 µM (inactive)
- GI50 (BT-549): 23.1 µM (inactive)
- GI50 (A549): 42 µM (inactive)
- GI50 (CCRF-CEM): > 100 µM (inactive)
- GI50 (SF-539): 23.5 µM (inactive)
- GI50 (UACC-62): 23 µM (inactive)
- GI50 (T47D): 48 µM (inactive)
- GI50 (SK-MEL-2): 22.8 µM (inactive)
- GI50 (ACHN): 26.3 µM (inactive)

SMILES: N#CC1(C#N)C2CCCCC23OC(=N)C1(C#N)C(c1ccco1)O3 (configuration not stated)
- GI50 (SF-268): 30.8 µM (inactive)
- GI50 (MDA-MB-435): 19.8 µM (inactive)
- GI50 (Malme-3M): 23.7 µM (inactive)
- GI50 (TK-10): 17.1 µM (inactive)
- GI50 (NCI-H460): 25.8 µM (inactive)
- GI50 (K562): 8.38 µM (inactive)
- GI50 (SNB-19): 31.6 µM (inactive)
- GI50 (UACC-257): 17.7 µM (inactive)
- GI50 (SK-OV-3): > 100 µM (inactive)
- GI50 (HCT-15): 9.23 µM
- GI50 (SW-620): 7.76 µM (inactive)
- GI50 (786-0): 14.5 µM (inactive)
- GI50 (HOP-92): 13.8 µM (inactive)
- GI50 (RXF 393): 21.7 µM (inactive)
- GI50 (IGROV-1): 18.3 µM (inactive)
- GI50 (PC-3): 23 µM (inactive)
- GI50 (SK-MEL-5): 15.5 µM (inactive)
- GI50 (SN12C): 14.8 µM (inactive)
- GI50 (KM12): 33.8 µM (inactive)
- GI50 (CAKI-1): 11.6 µM (inactive)
- GI50 (SNB-75): 55.5 µM (inactive)
- GI50 (SK-MEL-28): 15.6 µM (inactive)
- GI50 (MDA-N): 17.4 µM (inactive)
- GI50 (HT-29): 26.7 µM (inactive)
- GI50 (HCC 2998): 15.1 µM (inactive)
- GI50 (UO-31): 30.3 µM (inactive)
- GI50 (A498): 21.9 µM (inactive)
- GI50 (OVCAR-5): 24.9 µM (inactive)
- GI50 (SF-295): > 100 µM (inactive)
- GI50 (NCI/ADR-RES): 44.3 µM (inactive)
- GI50 (DU-145): 25.9 µM (inactive)
- GI50 (OVCAR-8): 23.2 µM (inactive)
- GI50 (MCF7): 21.9 µM (inactive)
- GI50 (EKVX): 25.8 µM (inactive)
- GI50 (OVCAR-3): 16.1 µM (inactive)
- GI50 (MDA-MB-231): 16.7 µM (inactive)
- GI50 (COLO 205): 11.9 µM (inactive)
- GI50 (NCI-H23): 26.1 µM (inactive)
- GI50 (MOLT-4): 23 µM (inactive)
- GI50 (Hs-578T): 30.8 µM (inactive)
- GI50 (LOX IMVI): 17.2 µM (inactive)
- GI50 (HCT-116): 17.4 µM (inactive)
- GI50 (M14): 20.4 µM (inactive)
- GI50 (U-251): > 10 µM (inactive)
- GI50 (NCI-H226): > 100 µM (inactive)
- GI50 (BT-549): 15.6 µM (inactive)
- GI50 (A549): > 100 µM (inactive)
- GI50 (CCRF-CEM): 10.5 µM (inactive)
- GI50 (SF-539): 23.8 µM (inactive)
- GI50 (UACC-62): 16.6 µM (inactive)
- GI50 (T47D): 17.6 µM (inactive)
- GI50 (SK-MEL-2): 17.6 µM (inactive)
- GI50 (ACHN): 28.5 µM (inactive)

SMILES: COc1ccc(CNC(=O)[C@@H]2CCCN2C(=O)[C@@H]2CCCN2C(=O)[C@H](C(C)C)N(C)C(=O)[C@@H](NC(=O)[C@H](C(C)C)N(Cc2ccccc2)Cc2ccccc2)C(C)C)cc1OC (Bn2Val-V[NMeV]PP-{NH(3,4-diMeO-benzyl)})
- GI50 (SF-268): 21.3 µM (inactive)
- GI50 (MDA-MB-435): 12 µM (inactive)
- GI50 (Malme-3M): 25.2 µM (inactive)
- GI50 (TK-10): 14 µM (inactive)
- GI50 (NCI-H460): 13.5 µM (inactive)
- GI50 (K562): 7.55 µM (inactive)
- GI50 (SNB-19): 15.9 µM (inactive)
- GI50 (UACC-257): 11.3 µM (inactive)
- GI50 (SK-OV-3): 16.9 µM (inactive)
- GI50 (SR): 4.54 µM (inactive)
- GI50 (HCT-15): 12.1 µM
- GI50 (SW-620): 12.8 µM (inactive)
- GI50 (HOP-62): 15.6 µM (inactive)
- GI50 (786-0): 10.4 µM (inactive)
- GI50 (HOP-92): 14.9 µM (inactive)
- GI50 (RXF 393): 11.1 µM (inactive)
- GI50 (IGROV-1): 3.92 µM (inactive)
- GI50 (PC-3): 6.15 µM (inactive)
- GI50 (SK-MEL-5): 7.5 µM (inactive)
- GI50 (SN12C): 15 µM (inactive)
- GI50 (KM12): 21.4 µM (inactive)
- GI50 (CAKI-1): 15.8 µM (inactive)
- GI50 (SNB-75): 10.3 µM (inactive)
- GI50 (SK-MEL-28): 16.9 µM (inactive)
- GI50 (MDA-N): 14.7 µM (inactive)
- GI50 (HT-29): 8.3 µM (inactive)
- GI50 (A498): 17.8 µM (inactive)
- GI50 (OVCAR-5): 18.5 µM (inactive)
- GI50 (SF-295): 15.1 µM (inactive)
- GI50 (NCI/ADR-RES): 18.3 µM (inactive)
- GI50 (DU-145): 14.8 µM (inactive)
- GI50 (OVCAR-8): 14.5 µM (inactive)
- GI50 (EKVX): 13.4 µM (inactive)
- GI50 (OVCAR-3): 12 µM (inactive)
- GI50 (MDA-MB-231): 17.5 µM (inactive)
- GI50 (COLO 205): 9.71 µM (inactive)
- GI50 (NCI-H23): 18.9 µM (inactive)
- GI50 (OVCAR-4): 18 µM (inactive)
- GI50 (MOLT-4): 4.39 µM (inactive)
- GI50 (Hs-578T): 51.3 µM (inactive)
- GI50 (LOX IMVI): 4.26 µM (inactive)
- GI50 (HCT-116): 14.4 µM (inactive)
- GI50 (M14): 14.6 µM (inactive)
- GI50 (NCI-H522): 8.85 µM (inactive)
- GI50 (U-251): 15.7 µM (inactive)
- GI50 (NCI-H226): 17.3 µM (inactive)
- GI50 (BT-549): 14.7 µM (inactive)
- GI50 (A549): 11.7 µM (inactive)
- GI50 (CCRF-CEM): 4.23 µM (inactive)
- GI50 (SF-539): 17.1 µM (inactive)
- GI50 (UACC-62): 14.5 µM (inactive)
- GI50 (T47D): 12.6 µM (inactive)
- GI50 (SK-MEL-2): 13.4 µM (inactive)
- GI50 (HL-60): 3.15 µM (inactive)
- GI50 (ACHN): 13.7 µM (inactive)
